Reference: the supplement of paper PMC12463676, “Small-molecule dissolution of stress granules by redox modulation benefits ALS models” (Nature Chemical Biology, 2025)

Assays:
lipoamide = compound: NC(=O)CCCCC1CCSS1 [lipoamide]; assay: thermal stability z-score vs DMSO; higher = more thermally stabilized by treatment; conditions: HeLa, lipoamide concentration 100 µM
Method: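 Cellular thermal proteome profiling in HeLa cells. Cells were treated with 100 µM lipoamide for 1 h, with or without 1 mM arsenate for a further 1 h, then heated to ten temperatures (37-66.3 °C), and soluble protein was quantified by TMT mass spectrometry relative to 0.1% DMSO controls. The thermal stability score (sum of log2 fold changes minus the abundance score) was transformed to a z-score; mean of n = 3 experiments.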

potassium arsenate = compound: O=[As]([O-])(O)O.[K+] [potassium arsenate]; assay: as above; conditions: HeLa; arsenate concentration 1 mM
Method: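 Cellular thermal proteome profiling in HeLa cells treated with 1 mM arsenate for 1 h (DMSO pretreatment), heated to ten temperatures (37-66.3 °C). Soluble protein was quantified by TMT mass spectrometry relative to DMSO controls; the thermal stability score was transformed to a z-score; mean of n = 3 experiments.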

[1] = arsenate co-treatment: 1 mM arsenate 1 h
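Further: each temperature applied for 3 min, abundance score taken as mean log2 fold change at the two lowest temperatures, z-score obtained by mean subtraction and division by SD.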

Sequence of UniProt Q9NRL3 (Q9NRL3 whole entry): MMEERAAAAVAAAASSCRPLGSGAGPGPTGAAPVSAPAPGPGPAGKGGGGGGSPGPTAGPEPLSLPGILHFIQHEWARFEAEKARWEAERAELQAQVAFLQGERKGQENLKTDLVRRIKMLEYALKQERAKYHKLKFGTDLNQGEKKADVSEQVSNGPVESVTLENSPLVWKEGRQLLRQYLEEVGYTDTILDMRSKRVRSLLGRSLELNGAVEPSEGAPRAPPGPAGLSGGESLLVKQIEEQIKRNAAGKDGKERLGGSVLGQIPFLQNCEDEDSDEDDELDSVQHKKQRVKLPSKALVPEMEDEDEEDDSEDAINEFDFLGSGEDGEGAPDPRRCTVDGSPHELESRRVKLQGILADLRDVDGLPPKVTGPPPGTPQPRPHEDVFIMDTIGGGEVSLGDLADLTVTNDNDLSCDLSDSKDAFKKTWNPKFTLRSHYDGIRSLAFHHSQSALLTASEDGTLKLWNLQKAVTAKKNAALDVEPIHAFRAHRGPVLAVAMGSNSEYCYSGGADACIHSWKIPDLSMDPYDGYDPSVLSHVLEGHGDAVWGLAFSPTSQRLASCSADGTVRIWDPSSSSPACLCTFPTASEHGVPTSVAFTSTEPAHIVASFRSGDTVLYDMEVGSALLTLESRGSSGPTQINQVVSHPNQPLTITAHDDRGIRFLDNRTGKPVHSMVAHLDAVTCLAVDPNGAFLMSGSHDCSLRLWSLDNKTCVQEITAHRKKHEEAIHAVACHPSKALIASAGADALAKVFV
Sequence of UniProt Q9Y6E0 (Q9Y6E0 whole entry, looked up): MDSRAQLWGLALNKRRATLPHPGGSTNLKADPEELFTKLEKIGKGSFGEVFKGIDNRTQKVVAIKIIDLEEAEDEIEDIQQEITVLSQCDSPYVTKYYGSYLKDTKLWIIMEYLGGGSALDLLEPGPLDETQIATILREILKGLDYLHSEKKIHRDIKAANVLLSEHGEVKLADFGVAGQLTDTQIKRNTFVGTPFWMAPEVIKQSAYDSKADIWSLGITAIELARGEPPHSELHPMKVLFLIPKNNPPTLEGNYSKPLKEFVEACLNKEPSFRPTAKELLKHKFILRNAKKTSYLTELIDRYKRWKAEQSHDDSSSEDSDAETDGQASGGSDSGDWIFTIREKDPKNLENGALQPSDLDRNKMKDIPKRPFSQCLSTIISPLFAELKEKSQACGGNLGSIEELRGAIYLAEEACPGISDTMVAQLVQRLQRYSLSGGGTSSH
Sequence of UniProt Q92783 (Q92783 whole entry): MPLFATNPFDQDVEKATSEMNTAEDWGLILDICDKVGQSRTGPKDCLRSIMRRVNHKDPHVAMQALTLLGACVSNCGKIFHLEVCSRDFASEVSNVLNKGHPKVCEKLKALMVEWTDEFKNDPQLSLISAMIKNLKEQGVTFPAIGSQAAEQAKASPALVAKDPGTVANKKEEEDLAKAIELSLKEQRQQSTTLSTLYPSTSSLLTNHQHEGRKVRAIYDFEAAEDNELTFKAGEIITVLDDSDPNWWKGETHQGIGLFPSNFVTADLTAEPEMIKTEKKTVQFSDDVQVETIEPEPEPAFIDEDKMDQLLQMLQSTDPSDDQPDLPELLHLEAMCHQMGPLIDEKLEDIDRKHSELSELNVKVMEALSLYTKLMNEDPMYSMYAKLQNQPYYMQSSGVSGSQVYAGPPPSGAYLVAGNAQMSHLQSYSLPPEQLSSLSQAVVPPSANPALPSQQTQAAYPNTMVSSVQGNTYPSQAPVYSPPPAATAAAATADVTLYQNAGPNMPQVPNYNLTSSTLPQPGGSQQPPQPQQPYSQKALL
Sequence of UniProt Q687X5 (Q687X5 whole entry): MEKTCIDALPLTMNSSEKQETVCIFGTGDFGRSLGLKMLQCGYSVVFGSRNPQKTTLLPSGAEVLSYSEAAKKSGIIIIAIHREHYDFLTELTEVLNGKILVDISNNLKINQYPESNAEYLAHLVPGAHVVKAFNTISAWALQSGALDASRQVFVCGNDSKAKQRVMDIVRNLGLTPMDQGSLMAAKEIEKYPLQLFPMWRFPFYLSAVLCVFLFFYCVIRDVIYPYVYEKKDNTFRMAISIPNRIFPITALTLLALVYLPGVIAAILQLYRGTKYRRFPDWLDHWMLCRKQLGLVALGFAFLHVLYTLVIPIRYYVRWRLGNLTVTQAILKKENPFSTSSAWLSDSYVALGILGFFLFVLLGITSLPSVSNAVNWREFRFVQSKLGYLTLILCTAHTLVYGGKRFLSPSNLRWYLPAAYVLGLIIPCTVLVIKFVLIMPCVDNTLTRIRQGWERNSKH
Sequence of UniProt O95630 (O95630 whole entry): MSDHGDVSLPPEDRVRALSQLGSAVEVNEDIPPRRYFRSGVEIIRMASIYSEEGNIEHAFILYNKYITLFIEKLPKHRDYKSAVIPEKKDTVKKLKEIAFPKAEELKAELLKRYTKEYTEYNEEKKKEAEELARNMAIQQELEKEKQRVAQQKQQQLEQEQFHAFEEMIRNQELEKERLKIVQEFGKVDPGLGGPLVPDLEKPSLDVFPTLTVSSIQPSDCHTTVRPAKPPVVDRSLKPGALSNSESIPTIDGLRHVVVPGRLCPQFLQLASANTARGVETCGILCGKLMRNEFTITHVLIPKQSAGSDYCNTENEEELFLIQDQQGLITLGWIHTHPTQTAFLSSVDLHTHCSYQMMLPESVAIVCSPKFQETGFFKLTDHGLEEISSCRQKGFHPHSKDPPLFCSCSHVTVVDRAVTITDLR
Sequence of UniProt O95793 (O95793 whole entry): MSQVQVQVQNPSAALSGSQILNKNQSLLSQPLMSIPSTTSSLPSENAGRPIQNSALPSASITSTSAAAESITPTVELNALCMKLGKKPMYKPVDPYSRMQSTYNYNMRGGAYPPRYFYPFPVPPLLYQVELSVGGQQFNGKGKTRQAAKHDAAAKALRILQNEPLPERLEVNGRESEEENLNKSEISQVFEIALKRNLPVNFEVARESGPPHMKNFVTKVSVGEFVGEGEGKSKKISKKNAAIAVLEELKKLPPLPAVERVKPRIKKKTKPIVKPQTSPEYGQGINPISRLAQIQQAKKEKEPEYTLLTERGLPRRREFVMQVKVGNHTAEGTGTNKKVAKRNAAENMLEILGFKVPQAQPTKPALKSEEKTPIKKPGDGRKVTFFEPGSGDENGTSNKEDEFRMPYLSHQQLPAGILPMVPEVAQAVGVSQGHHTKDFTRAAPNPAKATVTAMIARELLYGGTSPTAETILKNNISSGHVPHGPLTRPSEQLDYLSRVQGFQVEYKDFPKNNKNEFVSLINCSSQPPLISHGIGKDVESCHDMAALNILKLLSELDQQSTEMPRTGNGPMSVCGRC
Sequence of UniProt Q9NRC1 (Q9NRC1 whole entry): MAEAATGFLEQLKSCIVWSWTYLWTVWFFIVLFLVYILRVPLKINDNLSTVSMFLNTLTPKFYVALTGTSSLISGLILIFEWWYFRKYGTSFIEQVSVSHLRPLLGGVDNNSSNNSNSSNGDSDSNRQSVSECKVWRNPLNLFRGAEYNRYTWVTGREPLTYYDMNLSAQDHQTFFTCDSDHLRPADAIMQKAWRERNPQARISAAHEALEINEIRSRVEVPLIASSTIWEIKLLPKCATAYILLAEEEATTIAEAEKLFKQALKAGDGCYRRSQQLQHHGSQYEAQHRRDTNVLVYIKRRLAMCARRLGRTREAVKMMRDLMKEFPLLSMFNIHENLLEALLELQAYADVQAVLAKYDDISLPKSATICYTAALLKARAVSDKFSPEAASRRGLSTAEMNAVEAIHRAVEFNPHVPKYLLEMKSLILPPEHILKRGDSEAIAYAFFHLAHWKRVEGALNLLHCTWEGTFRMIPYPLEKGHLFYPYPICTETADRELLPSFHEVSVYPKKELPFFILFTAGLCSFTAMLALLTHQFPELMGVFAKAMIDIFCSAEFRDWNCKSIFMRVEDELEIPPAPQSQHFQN
Sequence of UniProt Q6ZWJ1 (Q6ZWJ1 whole entry): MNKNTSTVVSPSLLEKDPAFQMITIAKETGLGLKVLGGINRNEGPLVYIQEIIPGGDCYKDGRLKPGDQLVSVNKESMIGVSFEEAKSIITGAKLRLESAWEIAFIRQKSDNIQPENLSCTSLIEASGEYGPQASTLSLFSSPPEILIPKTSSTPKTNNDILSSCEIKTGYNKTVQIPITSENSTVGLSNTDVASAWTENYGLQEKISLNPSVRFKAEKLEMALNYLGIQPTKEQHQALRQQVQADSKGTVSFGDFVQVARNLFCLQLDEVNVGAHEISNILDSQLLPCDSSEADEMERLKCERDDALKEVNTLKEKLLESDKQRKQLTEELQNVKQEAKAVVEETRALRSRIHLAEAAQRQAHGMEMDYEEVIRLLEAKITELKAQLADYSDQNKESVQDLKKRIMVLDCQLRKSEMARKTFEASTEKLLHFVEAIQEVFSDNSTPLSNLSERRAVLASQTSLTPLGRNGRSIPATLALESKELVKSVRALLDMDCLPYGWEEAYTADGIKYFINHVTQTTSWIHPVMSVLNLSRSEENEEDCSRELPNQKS
Sequence of UniProt P16949 (P16949 whole entry): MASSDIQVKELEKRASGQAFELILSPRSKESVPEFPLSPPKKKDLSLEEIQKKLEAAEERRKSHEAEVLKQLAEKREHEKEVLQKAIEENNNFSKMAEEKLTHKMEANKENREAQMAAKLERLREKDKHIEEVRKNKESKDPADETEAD
Sequence of UniProt Q9UNK0 (Q9UNK0 whole entry): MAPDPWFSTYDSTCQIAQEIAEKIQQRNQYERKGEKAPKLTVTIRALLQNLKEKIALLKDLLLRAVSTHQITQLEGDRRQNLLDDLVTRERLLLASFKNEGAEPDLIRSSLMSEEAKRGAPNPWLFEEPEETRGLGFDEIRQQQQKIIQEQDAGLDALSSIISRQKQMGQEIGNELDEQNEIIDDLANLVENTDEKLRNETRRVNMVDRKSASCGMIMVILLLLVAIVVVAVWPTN
Sequence of UniProt P51571 (P51571 whole entry): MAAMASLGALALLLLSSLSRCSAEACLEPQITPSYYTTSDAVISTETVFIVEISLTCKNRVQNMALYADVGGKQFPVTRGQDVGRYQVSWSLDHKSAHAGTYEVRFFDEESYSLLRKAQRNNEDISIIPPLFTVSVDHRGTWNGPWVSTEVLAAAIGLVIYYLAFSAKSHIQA

Target	thermal stability z-score (lipoamide; [1])	thermal stability z-score (lipoamide; arsenate co-treatment: none)	thermal stability z-score (potassium arsenate)
SSR2 (UniProt P43308)	0.441	-0.158	0.191
SSR3 (UniProt Q9UNL2)	-0.665	-0.443	0.0314
SSR4 (UniProt P51571)	-1.7	-1.43	-0.649
SSRP1 (UniProt Q08945)	1.24	2.15	1.4
SSSCA1 (UniProt O60232)	1.33	1.12	0.0653
SSU72 (UniProt Q9NP77)	-0.256	-0.465	-0.473
SSX2IP (UniProt Q9Y2D8)	-0.271	-0.143	-0.0542
ST3GAL4 (UniProt Q11206)	-0.112	0.0672	0.726
ST7 (UniProt Q9NRC1)	-0.0918	0.0296	-1.16
ST13 (UniProt P50502)	0.433	0.404	0.962
STAG1 (UniProt Q8WVM7)	0.115	-0.148	-0.00763
STAG2 (UniProt Q8N3U4)	0.281	0.393	-0.0489
STAM2 (UniProt O75886)	0.291	-0.113	0.249
STAM (UniProt Q92783)	-0.258	0.0211	-0.0683
STAMBP (UniProt O95630)	-0.0484	-7.9e-05	1.23
STAMBPL1 (UniProt Q96FJ0)	0.417	0.511	1.05
STARD7 (UniProt Q9NQZ5)	0.0874	1.42	1.07
STAT1 (UniProt P42224)	-0.65	-0.206	0.502
STAT2 (UniProt P52630)	-0.0423	0.0157	0.171
STAT3 (UniProt P40763)	0.0355	-0.181	0.426
STAT5A (UniProt P42229)	-0.0259	0.314	0.0163
STAT5B (UniProt P51692)	-0.378	-0.11	0.0458
STAT6 (UniProt P42226)	0.0546	-0.269	0.472
STAU1 (UniProt O95793)	-1.06	-0.199	-0.275

Target	thermal stability z-score (lipoamide; [1])	thermal stability z-score (lipoamide; arsenate co-treatment: none)	thermal stability z-score (potassium arsenate)
STAU2 (UniProt Q9NUL3)	-0.183	-0.124	-0.323
STBD1 (UniProt O95210)	-0.616	0.112	0.149
STEAP3 (UniProt Q658P3)	0.104	0.572	-0.122
STEAP4 (UniProt Q687X5)	0.438	0.75	0.565
STIM1 (UniProt Q13586)	-1.28	-1.03	0.0811
STIM2 (UniProt Q9P246)	-0.102	-0.0704	-0.103
STIP1 (UniProt P31948)	0.275	0.371	-0.157
STK3 (UniProt Q13188)	-0.139	-0.0255	0.098
STK4 (UniProt Q13043)	0.0921	-0.0308	-0.188
STK10 (UniProt O94804)	-0.201	-0.0461	0.146
STK11IP (UniProt Q8N1F8)	-0.747	-0.512	0.324
STK17A (UniProt Q9UEE5)	-0.0669	-0.0755	0.0862
STK24 (UniProt Q9Y6E0)	0.0491	-0.118	0.0137
STK25 (UniProt O00506)	0.466	-0.862	0.496
STK26 (UniProt Q9P289)	0.681	1.24	1.4
STK38 (UniProt Q15208)	-0.703	-0.424	-0.182
STK38L (UniProt Q9Y2H1)	0.0467	0.0651	0.201
STMN1 (UniProt P16949)	1.14	1.18	0.78
STOM (UniProt P27105)	-0.123	0.354	0.0471
STOML2 (UniProt Q9UJZ1)	-0.324	0.0393	-0.147
STRAP (UniProt Q9Y3F4)	0.312	0.0419	-0.875
STRBP (UniProt Q96SI9)	0.867	0.71	0.571
STRIP1 (UniProt Q5VSL9)	0.978	1.5	1.36
STRN3 (UniProt Q13033)	0.231	0.318	0.326

Target	thermal stability z-score (lipoamide; [1])	thermal stability z-score (lipoamide; arsenate co-treatment: none)	thermal stability z-score (potassium arsenate)
STRN4 (UniProt Q9NRL3)	-0.136	0.198	0.937
STRN (UniProt O43815)	0.402	0.602	0.345
STT3A (UniProt P46977)	-2.6	-1.98	-0.218
STT3B (UniProt Q8TCJ2)	-3.41	-2.66	0.646
STUB1 (UniProt Q9UNE7)	-0.065	-0.23	0.207
STX2 (UniProt P32856)	0.221	-0.18	-0.135
STX3 (UniProt Q13277)	0.221	-0.315	-0.39
STX4 (UniProt Q12846)	0.741	0.546	-0.199
STX5 (UniProt Q13190)	0.00395	-0.95	0.0014
STX6 (UniProt O43752)	-0.996	-0.712	-0.486
STX7 (UniProt O15400)	-0.0553	0.417	0.507
STX8 (UniProt Q9UNK0)	-0.198	0.507	0.248
STX10 (UniProt O60499)	-0.387	-0.00805	0.516
STX12 (UniProt Q86Y82)	0.379	0.716	0.452
STX16 (UniProt O14662)	-0.63	0.276	0.553
STX18 (UniProt Q9P2W9)	0.00945	0.0404	0.066
STXBP1 (UniProt P61764)	-0.206	0.0929	0.156
STXBP2 (UniProt Q15833)	-0.105	0.167	0.225
STXBP3 (UniProt O00186)	0.948	0.942	0.223
STXBP4 (UniProt Q6ZWJ1)	-0.119	0.0111	-0.111
STXBP5 (UniProt Q5T5C0)	0.208	0.496	1.77
SUB1 (UniProt P53999)	0.206	0.0783	0.0838
SUCLA2 (UniProt Q9P2R7)	0.0341	0.0719	-0.411
